Results reported in patent US12338236B2, “Benzoisothiazole and benzoisoxazole compounds for the treatment of mental disorders” (SUVEN LIFE SCIENCES LIMITED, priority 2022, dated 2025).
Counter-ions that a name gives are not always drawn.

How the values were obtained:
[1] = molecular target: T1, human dopamine D2s receptor (Homo sapiens, UniProt P14416); assay: Determination of Ki values at D2S receptor ([3H]-Raclopride radioligand binding); conditions: hD2 (D2S), CHO-K1, [3H]-Raclopride 4 nM; read-out: Ki D2
T1 construct: expressed in transfected cells; host or cells: CHO-K1
Method: Example-45: Determination of Ki Values at D2S Receptor
• Receptor source: Recombinant mammalian cells (CHO-K1) • Radioligand: [^3H]-Raclopride (80.8 Ci/mmol) • Final ligand concentration: 4 nM • Non-specific determinant: 0.1 mM Haloperidol • Reference compound: Haloperidol • Positive control: Haloperidol Incubation conditions: Reactions were carried out in buffer with pH 7.4 containing 50 mM Tris-HCl, 120 mM NaCl, 5 mM KCl, 5 mM MgCl2, 1 mM EDTA for 2 h at RT. The reaction was terminated by rapid vacuum filtration onto the glass fiber filters. Radioactivity trapped onto the filters was determined and compared to the control values in order to ascertain any interactions of the test compound(s) with cloned human dopamine D2s receptor binding site.

human 5-HT1A receptor = molecular target: T2, human 5-HT1A receptor (Homo sapiens, UniProt P08908); assay: Determination of Ki values at 5-HT1A receptor ([3H]-8-Hydroxy DPAT radioligand binding); conditions: h5-HT1A, HEK293-EBNA, [3H]-8-Hydroxy DPAT 0.8 nM
T2 construct: expressed in transfected cells; host or cells: HEK293-EBNA
T2 sequence (P08908 1-422): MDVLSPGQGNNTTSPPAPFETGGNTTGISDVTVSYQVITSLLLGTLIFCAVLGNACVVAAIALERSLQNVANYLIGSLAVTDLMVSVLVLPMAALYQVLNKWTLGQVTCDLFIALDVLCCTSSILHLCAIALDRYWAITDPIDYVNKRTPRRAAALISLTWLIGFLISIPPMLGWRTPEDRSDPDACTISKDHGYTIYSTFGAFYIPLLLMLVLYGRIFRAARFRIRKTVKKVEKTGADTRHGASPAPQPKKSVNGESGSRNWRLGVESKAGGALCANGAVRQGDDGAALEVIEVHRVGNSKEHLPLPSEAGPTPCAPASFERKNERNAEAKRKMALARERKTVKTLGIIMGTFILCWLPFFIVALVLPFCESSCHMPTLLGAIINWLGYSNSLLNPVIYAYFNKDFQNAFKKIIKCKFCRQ
Method: Example-43: Determination of Ki Values at 5-HT1A Receptor
• Receptor source: Recombinant mammalian cells (HEK293-EBNA) • Radioligand: [^3H]-8-Hydroxy DPAT (200 Ci/mmol) • Final ligand concentration: 0.8 nM • Non-specific determinant: 0.1 mM U92016A • Reference compound: U92016A • Positive control: U92016A Incubation conditions: Reactions were carried out in buffer with pH 7.4 containing 50 mM Tris-HCl, 0.5 mM EDTA, 10 mM MgSO4, 0.1% Ascorbic acid for 2 h at RT. The reaction was terminated by rapid vacuum filtration onto the glass fiber filters. Radioactivity trapped onto the filters was determined and compared to the control values in order to ascertain any interactions of the test compound(s) with cloned human 5-HT1A receptor binding site.

human SERT = molecular target: T3, human SERT (Homo sapiens, UniProt P31645); assay: Determination of Ki values at SERT receptor ([3H]-Citalopram SPA binding); conditions: hSERT, HEK293, [3H]-Citalopram 2 nM
T3 construct: expressed in transfected cells; host or cells: HEK293
Method: Example-46: Determination of Ki Values at SERT Receptor
• Receptor source: Recombinant mammalian cells (HEK293) • Radioligand: [^3H]-Citalopram (80.8 Ci/mmol) • Final ligand concentration: 2 nM • Non-specific determinant: 0.1 mM Venlafaxine • Reference compound: Venlafaxine • Positive control: Venlafaxine Incubation conditions: Reactions were carried out in buffer with pH 7.4 containing 50 mM Tris-HCl, 150 mM NaCl, 5 mM KCl and Scintillation proximity assay (SPA) beads (0.1 mg/well) for 3 h at RT. Radioactivity proximal to SPA beads was determined by scintillation proximity assay and compared to the control values in order to ascertain any interactions of the test compound(s) with cloned human SERT receptor binding site.

[2] = molecular target: T4, human adrenergic α1B receptor (Homo sapiens, UniProt P35368); assay: Determination of Ki values at adrenergic α1B receptor ([3H]-Prazosin radioligand binding); conditions: hα1B, Chem-1 cells, [3H]-Prazosin 1 nM; read-out: Ki Alpha1B
T4 construct: expressed in transfected cells; host or cells: Chem-1
T4 sequence (P35368 1-520): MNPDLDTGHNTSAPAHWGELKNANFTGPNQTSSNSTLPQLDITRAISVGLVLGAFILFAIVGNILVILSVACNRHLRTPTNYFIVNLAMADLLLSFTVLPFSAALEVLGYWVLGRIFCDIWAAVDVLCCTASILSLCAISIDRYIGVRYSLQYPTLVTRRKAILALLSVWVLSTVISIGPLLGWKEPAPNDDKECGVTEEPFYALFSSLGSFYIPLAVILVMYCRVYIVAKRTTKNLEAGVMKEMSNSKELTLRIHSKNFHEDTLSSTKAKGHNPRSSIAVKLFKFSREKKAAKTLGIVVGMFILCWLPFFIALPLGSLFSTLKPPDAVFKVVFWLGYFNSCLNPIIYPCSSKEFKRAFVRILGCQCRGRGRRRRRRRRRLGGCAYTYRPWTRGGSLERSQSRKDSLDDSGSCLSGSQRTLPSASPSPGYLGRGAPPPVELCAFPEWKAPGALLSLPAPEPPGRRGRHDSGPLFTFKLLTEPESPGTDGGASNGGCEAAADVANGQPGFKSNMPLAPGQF
Method: Example-47: Determination of Ki Values at Adrenergic α1B Receptor
• Receptor source: Recombinant mammalian cells (Chem-1) • Radioligand: [^3H]-Prazosin (77.4 Ci/mmol) • Final ligand concentration: 1 nM • Non-specific determinant: 0.1 mM Prazosin • Reference compound: Prazosin • Positive control: Prazosin Incubation conditions: Reactions were carried out in buffer with pH 7.4 containing 67 mM Tris-HCl, 67 μM EDTA, […] for 1 h at RT. The reaction was terminated by rapid vacuum filtration onto the glass fiber filters. Radioactivity trapped onto the filters was determined and compared to the control values in order to ascertain any interactions of the test compound(s) with cloned human adrenergic α1B receptor binding site.

[3] = molecular target: T5, human histamine H1 receptor (Homo sapiens, UniProt P35367); assay: Determination of Ki values at histamine H1 receptor ([3H]-Pyrilamine SPA binding); conditions: hH1, CHO-K1, [3H]-Pyrilamine 2 nM
T5 construct: expressed in transfected cells; host or cells: CHO-K1
Method: Example-48: Determination of Ki values at Histamine H1 receptor
• Receptor source: Recombinant mammalian cells (CHO-K1) • Radioligand: [^3H]-Pyrilamine (20.7 Ci/mmol) • Final ligand concentration: 2 nM • Non-specific determinant: 0.1 mM Pyrilamine • Reference compound: Pyrilamine • Positive control: Pyrilamine Incubation conditions: Reactions were carried out in buffer with pH 7.4 containing 67 mM Tris-HCl and SPA beads (0.1 mg/well) for 1 h at 37° C. Radioactivity proximal to SPA beads was determined by scintillation proximity assay and compared to the control values in order to ascertain any interactions of the test compound(s) with cloned human histamine H1 receptor binding site.

T1 sequence (P14416 1-414 isoform P14416-2): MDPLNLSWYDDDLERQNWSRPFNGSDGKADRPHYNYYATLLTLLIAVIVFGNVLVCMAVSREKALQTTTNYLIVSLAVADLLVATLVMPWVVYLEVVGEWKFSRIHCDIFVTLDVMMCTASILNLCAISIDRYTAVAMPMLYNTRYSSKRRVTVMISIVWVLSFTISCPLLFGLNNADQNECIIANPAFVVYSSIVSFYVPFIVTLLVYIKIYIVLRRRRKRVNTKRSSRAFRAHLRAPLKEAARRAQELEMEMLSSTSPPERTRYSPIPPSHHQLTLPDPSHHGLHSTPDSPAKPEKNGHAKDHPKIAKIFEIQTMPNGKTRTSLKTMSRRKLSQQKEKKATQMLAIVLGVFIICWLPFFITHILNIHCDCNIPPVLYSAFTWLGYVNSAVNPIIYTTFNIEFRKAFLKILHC
T5 sequence (P35367 whole entry): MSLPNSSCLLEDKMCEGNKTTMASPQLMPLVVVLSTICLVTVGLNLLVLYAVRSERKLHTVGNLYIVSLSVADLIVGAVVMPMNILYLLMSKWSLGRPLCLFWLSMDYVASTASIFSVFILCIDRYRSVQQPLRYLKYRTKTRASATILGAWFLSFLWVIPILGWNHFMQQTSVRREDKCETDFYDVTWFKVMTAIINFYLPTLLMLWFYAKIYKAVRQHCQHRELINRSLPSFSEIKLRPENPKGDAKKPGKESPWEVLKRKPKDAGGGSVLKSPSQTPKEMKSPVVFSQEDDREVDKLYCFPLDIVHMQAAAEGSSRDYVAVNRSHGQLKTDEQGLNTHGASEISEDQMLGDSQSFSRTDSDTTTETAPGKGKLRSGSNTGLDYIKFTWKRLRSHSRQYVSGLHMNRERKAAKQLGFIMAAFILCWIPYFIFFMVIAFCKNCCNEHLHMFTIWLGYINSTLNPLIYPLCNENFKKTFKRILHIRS
T3 sequence (P31645 whole entry): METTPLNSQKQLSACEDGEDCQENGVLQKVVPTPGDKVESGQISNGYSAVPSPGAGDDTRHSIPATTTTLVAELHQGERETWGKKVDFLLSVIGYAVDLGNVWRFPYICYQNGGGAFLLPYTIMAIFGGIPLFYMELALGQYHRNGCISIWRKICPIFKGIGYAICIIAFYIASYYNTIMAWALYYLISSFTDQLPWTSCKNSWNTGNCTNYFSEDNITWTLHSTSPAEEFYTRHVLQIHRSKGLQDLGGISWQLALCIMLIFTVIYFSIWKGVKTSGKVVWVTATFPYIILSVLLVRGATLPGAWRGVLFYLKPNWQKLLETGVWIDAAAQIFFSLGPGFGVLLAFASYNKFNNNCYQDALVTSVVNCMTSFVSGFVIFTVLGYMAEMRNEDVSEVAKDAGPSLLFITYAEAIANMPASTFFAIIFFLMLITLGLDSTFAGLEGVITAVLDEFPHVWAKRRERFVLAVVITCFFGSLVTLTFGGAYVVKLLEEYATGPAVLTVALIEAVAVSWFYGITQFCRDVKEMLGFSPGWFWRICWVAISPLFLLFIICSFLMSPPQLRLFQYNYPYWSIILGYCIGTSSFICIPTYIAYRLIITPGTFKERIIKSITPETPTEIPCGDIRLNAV

Row | Structure (SMILES) | Ki [1] [nM] | Ki (human 5-HT1A receptor) [nM] | Ki (human SERT) [nM] | Ki [2] [nM] | Ki [3] [nM]
1 | Cc1nnc(-c2csc(OCCCN3CCN(c4nsc5ccccc45)CC3)n2)o1 [Example-2, 3-(4-{3-[4-(5-Methyl-[1,3,4]oxadiazol-2-yl)-thiazol-2-yloxy]-propyl}-piperazin-1-yl)-benzo[d]isothiazole oxalate] | 0.41 | 0.15 | 80 | 13.3 | 9.9
2 | Cc1noc(-c2csc(OCCCN3CCN(c4nsc5ccccc45)CC3)n2)n1 [compound 12, 3-(4-{3-[4-(3-Methyl-[1,2,4]oxadiazol-5-yl)-thiazol-2-yloxy]-propyl}-piperazin-1-yl)-benzo[d]isothiazole oxalate] | 0.4 | 0.2 | 157 | 14.4 | 4.1
